Source: patent US20240342150A1 (priority 2021, published 2024)
Read-outs that look alike come from different tables or passages of the source.

Key:
SARS-CoV-2 (Wuhan) = test: microbe, parasite or virus in culture; assay type: cell-based; conditions: Severe acute respiratory syndrome coronavirus 2, Vero C1008
Vero E6 cells = conditions: for % viable cells: not infected Vero E6 cells

## O=C(c1ccc(OCCN2CCCCC2)cc1)c1c(-c2ccc(O)cc2)sc2cc(O)ccc12 [Raloxifene, 1-[6-hydroxy-2-(4-hydroxyphenyl)benzo[b]thien-3-yl]-1-[4-[2-(1-piperidinyl)ethoxy]phenyl]methanone]
SARS-CoV-2 (Wuhan)
  IC50: 5.92 µM
Vero E6 cells; Raloxifene 0.23 μM, 48 h
  % viable cells: 100%
Vero E6 cells; Raloxifene 0.23 μM, 72 h
  % viable cells: 102%
Vero E6 cells; Raloxifene 0.46 μM, 48 h
  % viable cells: 95%
Vero E6 cells; Raloxifene 0.46 μM, 72 h
  % viable cells: 95%
Vero E6 cells; Raloxifene 0.94 μM, 48 h
  % viable cells: 95%
Vero E6 cells; Raloxifene 0.94 μM, 72 h
  % viable cells: 96%
Vero E6 cells; Raloxifene 1.87 μM, 48 h
  % viable cells: 99%
Vero E6 cells; Raloxifene 1.87 μM, 72 h
  % viable cells: 97%
Vero E6 cells; Raloxifene 3.75 μM, 48 h
  % viable cells: 93%
Vero E6 cells; Raloxifene 3.75 μM, 72 h
  % viable cells: 96%
Vero E6 cells; Raloxifene 7.5 μM, 48 h
  % viable cells: 92%
Vero E6 cells; Raloxifene 7.5 μM, 72 h
  % viable cells: 97%
Vero E6 cells; Raloxifene 15 μM, 48 h
  % viable cells: 86%
Vero E6 cells; Raloxifene 15 μM, 72 h
  % viable cells: 76%
Vero E6 cells; Raloxifene 15 μM, crystal violet staining
  effect on cell viability: reduced percentage of viable cells
Vero E6 cells; lower drug concentrations (7.5 to 0.23 μM)
  effect on cell viability: No significant effect on cell viability
